Laboratory results taken from PMC9065678, “BI 1015550 is a PDE4B Inhibitor and a Clinical Drug Candidate for the Oral Treatment of Idiopathic Pulmonary Fibrosis” (Frontiers in Pharmacology, 2022).

Test system: FN mRNA expression
Test: TGF-β-induced FN mRNA expression in IPF lung fibroblasts (Taqman)
Type: cell-based, human
Conditions: IPF-LF, TGF-β 4 ng/mL, 48 h
Method: Fibroblasts from donors with IPF (IPF-LF) (Asterand, Detroit, MI, United States) were grown in fibroblast basal medium (CC-3131, Lonza Walkersville, Inc., Walkersville, MD, United States) supplemented with FGM-2 SingleQuot Kit Supplements and Growth Factors (CC-4126, Lonza). Cells were grown in a humidified incubator at 37°C and 5% CO2. All assays were performed at passage 7 or 8. For assay set-up, cells were seeded in fibroblast growth medium plus supplements in assay-relevant densities. For TGF-β-stimulated assays, cells were seeded at 4,500 cells per well in 96-well plates. Proliferation assays were performed in 96-well plates at an initial seeding cell density on day 0 of 2,000 cells per well. After 24-h, the cell culture medium was changed to starvation medium (fibroblast basal medium without supplements). […]
For determination of Col1A1, Col3A1, and FN mRNA expression, IPF-LF cells were stimulated with TGF-β (4 ng/mL) for 48 h. […] Quantitative real-time polymerase chain reactions were set up using the TaqMan™ Fast Advanced Master Mix (Applied Biosystems, Carlsbad, CA, United States) and species-specific gene expression assays: Col1A1 #Hs00164004_m1 FAM, Col3A1 #Hs0094309_m1 FAM, FN #Hs01549976_m1 FAM, 18S #4310893E. […] Fold-change of gene expression was calculated by the Viia7 software (regulation based upon housekeeper).

[O-][S+]1CCc2nc(N3CCC(c4ncc(Cl)cn4)CC3)nc(NC3(CO)CCC3)c21 (stereo not shown) [BI 1015550]
IC50: 246 nM
